Measured values reported in paper PMC4357715, “The beta hairpin structure within ribosomal protein S5 mediates interplay between domains II and IV and regulates HCV IRES function” (Nucleic Acids Research, 2015).

Experiments:
HCV IRES = test: Ribosomal assembly assay on HCV IRES in RRL; type: biochemical, Hepatitis C Virus; details: wild-type 32P-labelled HCV IRES RNA; 2 mM GMP-PNP or 20 mM cycloheximide
Protocol: ^32P-labelled wild type or mutant HCV IRES RNA (3 × 10^5 c.p.m.) was added to 25 μl of translation reaction containing 17.5 μl of rabbit reticulocyte lysate (RRL). The reactions were incubated at 30°C for 15 min and diluted to 150 μl with ice cold gradient buffer (20 mM Tris–HCl pH 7.5, 100 mM KCl, 3 mM MgCl2, 1 mM Dithiothreitol (DTT)) and overlaid in 5–30% sucrose gradient. The ribosomal complexes were separated by ultracentrifuge for 3 h at 30 000 rpm at 4°C in TH-641 rotor (Thermo Scientific). Fractions (330 μl) were manually collected from the top of the tube and radioactivity was measured in a liquid scintillation counter. To validate the peaks, in vitro translation was performed in presence of 2 mM 5′-guanylyl imidodiphosphate (GMP-PNP) or 20 mM of cycloheximide and peaks were resolved on sucrose gradient.
We confirmed the 48S and 80S peaks in the ribosome assembly profile by using GMPPNP and cycloheximide respectively. As expected GMPPNP and cycloheximide stalled translation at the 48S and 80S stages, respectively (Figure 3A).
Figure 3. Ribosome assembly on wild type and mutant HCV IRES. (A) Ribosome assembly on wild-type ^32P-labelled HCV IRES RNA in the presence of either cycloheximide or GMPPNP. […] Different fractions were collected and the radioactivity associated with each fraction was measured. […]

[1] = test system: global protein synthesis in Huh7 cells; test: 35S-Methionine metabolic labelling; type: cell-based; details: cycloheximide 100 μg/ml, positive control
Protocol: Forty-eight hours after transfection, medium was replaced with serum free DMEM lacking methionine and cysteine (Sigma) and incubated for 1 h. Then 100 μci of ^35S in vivo pro-twin label mix (BRIT) was added to each well and cells were labelled for 30 min. Cells treated with 100 μg/ml concentration of cycloheximide were taken as positive control for global translation shut down. After labelling the cells, media was removed and the cells were washed three times with ice-cold phosphate buffered saline (PBS). Cells were harvested and lysed in the 100 μl of RIPA buffer lacking SDS (50 mM Tris–HCl pH 7.4, 150 mM NaCl, 1 mM EDTA, 1% NP-40, 0.25% sodiumdeoxycholate) containing protease inhibitors (complete EDTA-free protease inhibitor, Roche). The protein concentration of the lysate was then estimated by Bradford assay. Twenty-five micrograms of protein from each sample was mixed with 0.1 mg BSA and ice-cold TCA was added to a final concentration of 20%. The samples were incubated for 30 min on ice and loaded on prewet (with 20% TCA) glass microfibre filters (Whatmann). The filters were washed with 1 ml of 20% TCA twice and once with 1 ml of 100% ethanol. The filters were then incubated overnight with 4 ml of scintillation liquid and counts were taken.
Figure 6. Role of RPS5 in HCV translation and replication. […] Huh7 cells were transfected with siNSP RNA or siRPS5 RNA. […]

Row | Structure (SMILES) | stage at which translation is stalled (HCV IRES) [S] | reduction of protein levels (35S-methionine incorporation) [1] [%]
1 | Nc1nc2c(ncn2[C@@H]2O[C@H](COP(=O)(O)OP(=O)(O)NP(=O)(O)O)[C@@H](O)[C@H]2O)c(=O)[nH]1 [GMPPNP, 5′-guanylyl imidodiphosphate] | 48 | –
2 | C[C@@H]1C[C@@H]([C@H](O)CC2CC(=O)NC(=O)C2)C(=O)[C@@H](C)C1 [cycloheximide] | 80 | ~75
